Results published in PubChem BioAssay (NCI).
“And” between values parts separate entries of the source, which are not always exact repeats. Equal values may be shown once.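 In this assay, cells in 96-well plates receive the compound at five concentrations for 48 hours. Endpoints are linearly interpolated between the surrounding concentrations. Abbreviation: GI50, concentration required for 50% inhibition of growth. TGI: concentration producing complete growth inhibition.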

Tests used:
Experiment in all cases: inhibition of tumour cell growth, NCI panel, 48 h
[1] = system: 786-0 renal
[2] = system: A498 renal
[3] = system: A549 NSCLC
[4] = system: ACHN renal
[5] = system: BT-549 breast
[6] = system: CAKI-1 renal
[7] = system: COLO 205 colon
[8] = system: DU-145 prostate
[9] = system: EKVX NSCLC
[10] = system: HCC-2998 colon
[11] = system: HCT-116 colon
[12] = system: HCT-15 colon
[13] = system: HOP-62 NSCLC
[14] = system: HOP-92 NSCLC
[15] = system: HS 578T breast
[16] = system: HT29 colon
[17] = system: IGROV1 ovarian
[18] = system: KM12 colon
[19] = system: LOX IMVI melanoma
[20] = system: M14 melanoma
[21] = system: MALME-3M melanoma
[22] = system: MCF7 breast
[23] = system: MDA-MB-231 breast
[24] = system: MDA-MB-435
[25] = system: MOLT-4 leukemia
[26] = system: NCI-H226 lung
[27] = system: NCI-H23 lung
[28] = system: NCI-H460 lung
[29] = system: NCI-H522 lung
[30] = system: NCI/ADR-RES ovarian
[31] = system: OVCAR-3 ovarian
[32] = system: OVCAR-4 ovarian
[33] = system: OVCAR-5 ovarian
[34] = system: OVCAR-8 ovarian
[35] = system: PC-3 prostate
[36] = system: RPMI-8226 leukemia
[37] = system: RXF 393 renal
[38] = system: SF-268 CNS
[39] = system: SF-295 CNS
[40] = system: SF-539 CNS
[41] = system: SK-MEL-2 melanoma
[42] = system: SK-MEL-28 melanoma
[43] = system: SK-MEL-5 melanoma
[44] = system: SK-OV-3 ovarian
[45] = system: SN12C renal
[46] = system: SNB-19 CNS
[47] = system: SNB-75 CNS
[48] = system: SW-620 colon
[49] = system: T-47D breast
[50] = system: TK-10 renal
[51] = system: U251 CNS
[52] = system: UACC-257 melanoma
[53] = system: UACC-62 melanoma
[54] = system: UO-31 renal
[55] = system: CCRF-CEM leukemia
[56] = system: K-562 leukemia

COCCNCCc1cccc(Nc2ncc3c(n2)-c2ccccc2C(c2ccccc2F)C3)c1 (stereo not drawn)
GI50 [1]: 1430 nM and 1760 nM
TGI [1]: 2.91 µM and 3.3 µM
GI50 [2]: 345 nM and 1610 nM
TGI [2]: 1.75 µM and 3.14 µM
GI50 [3]: 1780 nM and 1880 nM
TGI [3]: 3.33 µM and 3.51 µM
GI50 [4]: 1030 nM and 1050 nM
TGI [4]: 2200 nM and 2230 nM
GI50 [5]: 1.55 µM and 7.79 µM
TGI [5]: 2.95 µM and 25.6 µM
GI50 [6]: 1270 nM and 1260 nM
TGI [6]: 2540 nM
GI50 [7]: 1880 nM and 1920 nM
TGI [7]: 3.67 µM and 3.63 µM
GI50 [8]: 1530 nM and 1620 nM
TGI [8]: 2.98 µM and 3.04 µM
GI50 [9]: 1630 nM and 1920 nM
TGI [9]: 3.13 µM and 3.51 µM
GI50 [10]: 1770 nM and 2080 nM
TGI [10]: 3.28 µM and 3.65 µM
GI50 [11]: 1210 nM and 1660 nM
TGI [11]: 2.6 µM and 3.12 µM
GI50 [12]: 1190 nM and 1260 nM
TGI [12]: 2560 nM and 2600 nM
GI50 [13]: 1600 nM and 1710 nM
TGI [13]: 3.11 µM and 3.3 µM
GI50 [14]: 1020 nM and 1240 nM
TGI [14]: 2270 nM and 2650 nM
GI50 [15]: 1150 nM and 1270 nM
TGI [15]: 3.46 µM and 3.79 µM
GI50 [16]: 1120 nM and 1310 nM
TGI [16]: 2360 nM and 2680 nM
GI50 [17]: 1000 nM and 1210 nM
TGI [17]: 2380 nM and 2750 nM
GI50 [18]: 1770 nM and 1790 nM
TGI [18]: 3.43 µM and 3.37 µM
GI50 [19]: 1250 nM and 1230 nM
TGI [19]: 2560 nM and 2500 nM
GI50 [20]: 1560 nM and 1940 nM
TGI [20]: 3.06 µM and 3.78 µM
GI50 [21]: 1770 nM and 1870 nM
TGI [21]: 3.41 µM and 3.54 µM
GI50 [22]: 1580 nM and 1780 nM
TGI [22]: 3.4 µM and 3.69 µM
GI50 [23]: 1670 nM and 1450 nM
TGI [23]: 3.11 µM and 2.84 µM
GI50 [24]: 1750 nM and 1820 nM
TGI [24]: 3.25 µM and 3.32 µM
GI50 [25]: 1.18 µM
TGI [25]: 4.15 µM
GI50 [26]: 1310 nM and 1800 nM
TGI [26]: 2.94 µM and 3.67 µM
GI50 [27]: 1650 nM and 1750 nM
TGI [27]: 3.1 µM and 3.32 µM
GI50 [28]: 1330 nM and 1700 nM
TGI [28]: 3.08 µM and 3.47 µM
GI50 [29]: 1530 nM and 1520 nM
TGI [29]: 2950 nM
GI50 [30]: 1790 nM and 1760 nM
TGI [30]: 3.43 µM and 3.45 µM
GI50 [31]: 1760 nM and 1600 nM
TGI [31]: 3.48 µM and 3.1 µM
GI50 [32]: 1340 nM and 1720 nM
TGI [32]: 2.74 µM and 3.18 µM
GI50 [33]: 1420 nM and 1570 nM
TGI [33]: 2.76 µM and 3.02 µM
GI50 [34]: 1790 nM and 1870 nM
TGI [34]: 3.38 µM and 3.9 µM
GI50 [35]: 1490 nM and 1390 nM
TGI [35]: 2890 nM and 2860 nM
GI50 [36]: 1520 nM and 1740 nM
TGI [36]: 3.7 µM and 4.23 µM
GI50 [37]: 1110 nM and 1240 nM
TGI [37]: 2390 nM and 2590 nM
GI50 [38]: 1440 nM and 1640 nM
TGI [38]: 3.07 µM and 3.19 µM
GI50 [39]: 1720 nM and 1610 nM
TGI [39]: 3.11 µM and 2.99 µM
GI50 [40]: 1320 nM and 1500 nM
TGI [40]: 2620 nM and 2860 nM
GI50 [41]: 1710 nM and 1940 nM
TGI [41]: 3.19 µM and 3.44 µM
GI50 [42]: 1600 nM and 1760 nM
TGI [42]: 2.97 µM and 3.18 µM
GI50 [43]: 1650 nM
TGI [43]: 3.04 µM and 3.03 µM
GI50 [44]: 1710 nM and 2450 nM
TGI [44]: 3.14 µM and 6.34 µM
GI50 [45]: 1320 nM and 1040 nM
TGI [45]: 2700 nM and 2340 nM
GI50 [46]: 1750 nM and 1810 nM
TGI [46]: 3.18 µM and 3.28 µM
GI50 [47]: 1170 nM and 727 nM
TGI [47]: 2480 nM and 2090 nM
GI50 [48]: 2.4 µM
TGI [48]: 4.63 µM
GI50 [49]: 1760 nM and 1820 nM
TGI [49]: 3.6 µM and 3.92 µM
GI50 [50]: 1380 nM and 1600 nM
TGI [50]: 2740 nM and 2980 nM
GI50 [51]: 1240 nM and 1820 nM
TGI [51]: 2.57 µM and 3.28 µM
GI50 [52]: 2010 nM and 2150 nM
TGI [52]: 3.54 µM and 4.05 µM
GI50 [53]: 1720 nM and 1760 nM
TGI [53]: 3.12 µM and 3.16 µM
GI50 [54]: 685 nM and 1290 nM
TGI [54]: 2060 nM and 2570 nM

CC1SC(c2ccc(Cl)c(Cl)c2)N(NC(=O)C(O)c2ccccc2)C1=O (stereo not drawn)
GI50 [1]: 79600 nM
TGI [1]: > 100 µM
GI50 [2]: 77100 nM
TGI [2]: > 100 µM
GI50 [3]: 29600 nM
TGI [3]: 85.4 µM
GI50 [4]: 33300 nM
TGI [4]: > 100000 nM
GI50 [5]: 45 µM
TGI [5]: > 100 µM
GI50 [6]: 30700 nM
TGI [6]: > 100000 nM
GI50 [55]: 55.1 µM
TGI [55]: > 100 µM
GI50 [7]: 44700 nM
TGI [7]: > 100 µM
GI50 [8]: 59200 nM
TGI [8]: > 100 µM
GI50 [9]: 43700 nM
TGI [9]: > 100 µM
GI50 [10]: 36900 nM
TGI [10]: > 100 µM
GI50 [11]: 43200 nM
TGI [11]: > 100 µM
GI50 [12]: 45500 nM
TGI [12]: > 100000 nM
GI50 [13]: 85100 nM
TGI [13]: > 100 µM
GI50 [14]: 40800 nM
TGI [14]: > 100000 nM
GI50 [15]: 51100 nM
TGI [15]: > 100 µM
GI50 [16]: 32300 nM
TGI [16]: > 100000 nM
GI50 [17]: 28500 nM
TGI [17]: 74600 nM
GI50 [56]: 57.1 µM
TGI [56]: > 100 µM
GI50 [18]: 42600 nM
TGI [18]: > 100 µM
GI50 [19]: 55200 nM
TGI [19]: > 100000 nM
GI50 [20]: 42500 nM
TGI [20]: > 100 µM
GI50 [21]: 46200 nM
TGI [21]: > 100 µM
GI50 [22]: 47100 nM
TGI [22]: > 100 µM
GI50 [23]: 31300 nM
TGI [23]: > 100 µM
GI50 [24]: 41800 nM
TGI [24]: > 100 µM
GI50 [25]: 26.6 µM
TGI [25]: 82.2 µM
GI50 [26]: 33600 nM
TGI [26]: > 100 µM
GI50 [27]: 33300 nM
TGI [27]: > 100 µM
GI50 [28]: 33500 nM
TGI [28]: > 100 µM
GI50 [29]: 28400 nM
TGI [29]: 98500 nM
GI50 [31]: 25900 nM
TGI [31]: 77.6 µM
GI50 [32]: 32600 nM
TGI [32]: 91.2 µM
GI50 [33]: 70100 nM
TGI [33]: > 100 µM
GI50 [34]: 34100 nM
TGI [34]: > 100 µM
GI50 [35]: 35000 nM
TGI [35]: > 100000 nM
GI50 [36]: 25000 nM
TGI [36]: 66 µM
GI50 [37]: 30300 nM
TGI [37]: 83200 nM
GI50 [38]: 55700 nM
TGI [38]: > 100 µM
GI50 [39]: 24500 nM
TGI [39]: 67.5 µM
GI50 [40]: 72600 nM
TGI [40]: > 100000 nM
GI50 [41]: 45400 nM
TGI [41]: > 100 µM
GI50 [42]: 38500 nM
TGI [42]: > 100 µM
GI50 [43]: 38100 nM
TGI [43]: > 100 µM
GI50 [44]: > 100000 nM
TGI [44]: > 100 µM
GI50 [45]: 44100 nM
TGI [45]: > 100000 nM
GI50 [46]: 93200 nM
TGI [46]: > 100 µM
GI50 [47]: 24800 nM
TGI [47]: 90100 nM
GI50 [48]: 77.2 µM
TGI [48]: > 100 µM
GI50 [49]: 67500 nM
TGI [49]: > 100 µM
GI50 [50]: 41300 nM
TGI [50]: > 100000 nM
GI50 [51]: 41000 nM
TGI [51]: > 100 µM
GI50 [52]: 35100 nM
TGI [52]: > 100 µM
GI50 [53]: 25200 nM
TGI [53]: 86.1 µM
GI50 [54]: 36600 nM
TGI [54]: > 100000 nM
